Reference: ChEMBL document CHEMBL5241131, “2-Anilino-4-(1-methyl-1H-pyrazol-4-yl)pyrimidine-derived CDK2 inhibitors as anticancer agents: Design, synthesis & evaluation” (Bioorg Med Chem, 2023)
Calls of active or inactive are those of the source. No cut-off for these calls is given here.

Legend:
HCT-116 [1] = experiment: Induction of apoptosis in human HCT-116 cells assessed as late apoptotic cells at 0.5 uM incubated for 72 hrs by AnnexinV-FITC/propidium iodide staining based flow cytometry (reference value: 2.91%); format: functional
MV4-11 = experiment: Antiproliferative activity against human MV4-11 cells assessed as inhibition of cell growth incubated for 72 hrs by MTT assay; format: functional
NCI-H82 = experiment: Antiproliferative activity against human NCI-H82 cells assessed as inhibition of cell growth incubated for 72 hrs by MTT assay; format: functional
KM12 = experiment: Antiproliferative activity against human KM12 cells assessed as inhibition of cell growth incubated for 72 hrs by MTT assay; format: functional
[2] = Antiproliferative activity against human COV504 cells assessed as inhibition of cell growth incubated for 72 hrs by MTT assay; format: functional
U-251 = experiment: Antiproliferative activity against human U-251 cells assessed as inhibition of cell growth incubated for 72 hrs by MTT assay; format: functional
HT-29 = experiment: Antiproliferative activity against human HT-29 cells assessed as inhibition of cell growth incubated for 72 hrs by MTT assay; format: functional
[3] = target: Cyclin-dependent kinase 2 (Homo sapiens) (UniProt P24941); experiment: Inhibition of CDK2 in human HCT-116 cells assessed as reduction in phosphorylation at Serine 807/811 residue incubated for 24 hrs by Western blot analysis; format: cell-based; conditions: dose 0.5-1 µM
MDA-MB-231 = experiment: Antiproliferative activity against human MDA-MB-231 cells assessed as inhibition of cell growth incubated for 72 hrs by MTT assay; format: functional
A2780 = experiment: Antiproliferative activity against human A2780 cells assessed as inhibition of cell growth incubated for 72 hrs by MTT assay; format: functional
HCT-116 [4] = experiment: Downregulation of CDC25B expression in human HCT-116 cells at 0.5 to 1 uM incubated for 24 hrs by Western blot analysis; format: functional, cell-based; conditions: dose 0.5-1 µM
OAW-28 = experiment: Antiproliferative activity against human OAW-28 cells assessed as inhibition of cell growth incubated for 72 hrs by MTT assay; format: functional
COLO 205 = experiment: Antiproliferative activity against human COLO 205 cells assessed as inhibition of cell growth incubated for 72 hrs by MTT assay; format: functional
HCT-116 [5] = experiment: Induction of apoptosis in human HCT-116 cells assessed as early apoptotic cells at 0.5 uM incubated for 72 hrs by AnnexinV-FITC/propidium iodide staining based flow cytometry (reference value: 2.95%); format: functional
[6] = target: Cyclin-dependent kinase 5/CDK5 activator 1 (Homo sapiens, UniProt Q00535); experiment: Inhibition of CDK5/p25 (unknown origin) assessed as inhibition constant incubated for 30 to 60 mins presence of dithiothreitol by Cheng-Prusoff equation analysis; format: protein-complex assay
Cyclin-dependent kinase 5/CDK5 activator 1, sequence (Q00535 whole entry): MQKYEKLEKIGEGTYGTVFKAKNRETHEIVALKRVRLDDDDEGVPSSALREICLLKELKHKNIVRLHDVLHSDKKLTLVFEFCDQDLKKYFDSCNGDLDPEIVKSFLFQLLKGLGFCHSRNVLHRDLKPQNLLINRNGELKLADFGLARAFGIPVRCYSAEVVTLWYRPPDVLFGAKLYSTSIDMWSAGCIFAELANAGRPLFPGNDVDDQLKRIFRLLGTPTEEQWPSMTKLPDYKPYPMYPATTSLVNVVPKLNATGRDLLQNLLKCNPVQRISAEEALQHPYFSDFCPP
Cyclin-dependent kinase 5/CDK5 activator 1, sequence (Q15078 whole entry, further chain): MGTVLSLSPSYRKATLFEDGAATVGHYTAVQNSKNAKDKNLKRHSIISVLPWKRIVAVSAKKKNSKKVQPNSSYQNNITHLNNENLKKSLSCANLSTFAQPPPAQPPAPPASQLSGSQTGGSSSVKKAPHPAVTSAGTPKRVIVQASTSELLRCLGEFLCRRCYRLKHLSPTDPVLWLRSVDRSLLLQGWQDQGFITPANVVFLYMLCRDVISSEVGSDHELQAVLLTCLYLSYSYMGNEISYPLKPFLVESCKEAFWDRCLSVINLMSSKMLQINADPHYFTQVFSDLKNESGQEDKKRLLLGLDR

HCT-116 [7] = experiment: Induction of apoptosis in human HCT-116 cells assessed as late apoptotic cells at 1 uM incubated for 72 hrs by AnnexinV-FITC/propidium iodide staining based flow cytometry (reference value: 2.91%); format: functional
HCT-116 [8] = experiment: Induction of cell cycle arrest in human HCT-116 cells assessed as accumulation of cells at G1 phase at 1 uM incubated for 24 hrs by propidium iodide staining based flow cytometry (reference value: 51.33%); format: functional
HCT-116 [9] = experiment: Induction of apoptosis in human HCT-116 cells assessed as increase in cleaved PARP level at 0.5 to 1 uM incubated for 24 hrs by Western blot analysis; format: functional, cell-based; conditions: dose 0.5-1 µM
HCT-116 [10] = experiment: Induction of cell cycle arrest in human HCT-116 cells assessed as accumulation of cells at G1 phase at 0.5 uM incubated for 24 hrs by propidium iodide staining based flow cytometry (reference value: 51.33%); format: functional
HCT-116 [11] = experiment: Antiproliferative activity against human HCT-116 cells assessed as inhibition of cell growth incubated for 72 hrs by MTT assay; format: functional
HCT-116 [12] = experiment: Induction of cell cycle arrest in human HCT-116 cells assessed as accumulation of cells at S phase at 0.5 uM incubated for 24 hrs by propidium iodide staining based flow cytometry (reference value: 18.01%); format: functional
HCT-116 [13] = experiment: Induction of apoptosis in human HCT-116 cells assessed as necrotic cells at 1 uM incubated for 72 hrs by AnnexinV-FITC/propidium iodide staining based flow cytometry (Rvb =0.71%); format: functional
HCT-116 [14] = experiment: Induction of apoptosis in human HCT-116 cells assessed as viable cells at 1 uM incubated for 72 hrs by AnnexinV-FITC/propidium iodide staining based flow cytometry (reference value: 93.43%); format: functional; conditions: read-out: Activity
HCT-116 [15] = experiment: Induction of cell cycle arrest in human HCT-116 cells assessed as accumulation of cells at G2/M phase at 0.5 uM incubated for 24 hrs by propidium iodide staining based flow cytometry (reference value: 28.37%); format: functional
HCT-116 [16] = experiment: Induction of cell cycle arrest in human HCT-116 cells assessed as accumulation of cells at sub G1 phase at 1 uM incubated for 24 hrs by propidium iodide staining based flow cytometry (reference value: 0.24%); format: functional
[17] = target: Cyclin-dependent kinase 1/cyclin B (Homo sapiens, UniProt P06493); experiment: Inhibition of CDK1/Cyclin B (unknown origin) assessed as inhibition constant incubated for 30 to 60 mins presence of dithiothreitol by Cheng-Prusoff equation analysis; format: protein-complex assay
OV-90 = experiment: Antiproliferative activity against human OV-90 cells assessed as inhibition of cell growth incubated for 72 hrs by MTT assay; format: functional
HCT-116 [18] = experiment: Induction of apoptosis in human HCT-116 cells assessed as early apoptotic cells at 1 uM incubated for 72 hrs by AnnexinV-FITC/propidium iodide staining based flow cytometry (reference value: 2.95%); format: functional
HCT-116 [19] = experiment: Induction of DNA damage in human HCT-116 cells assessed as increase in H2AX phosphorylation at Ser139 residue at 0.5 to 1 uM incubated for 24 hrs by Western blot analysis; format: functional, cell-based; conditions: dose 0.5-1 µM
HCT-116 [20] = experiment: Induction of cell cycle arrest in human HCT-116 cells assessed as accumulation of cells at sub G1 phase at 0.5 uM incubated for 24 hrs by propidium iodide staining based flow cytometry (reference value: 0.24%); format: functional
HCT-116 [21] = experiment: Induction of apoptosis in human HCT-116 cells assessed as necrotic cells at 0.5 uM incubated for 72 hrs by AnnexinV-FITC/propidium iodide staining based flow cytometry (Rvb =0.71%); format: functional
HCT-116 [22] = experiment: Induction of cell cycle arrest in human HCT-116 cells assessed as accumulation of cells at G2/M phase at 1 uM incubated for 24 hrs by propidium iodide staining based flow cytometry (reference value: 28.37%); format: functional
[23] = target: Cyclin-dependent kinase 2/cyclin E (Homo sapiens, UniProt P24941); experiment: Inhibition of CDK2/cyclin E (unknown origin) assessed as inhibition constant incubated for 30 to 60 mins presence of dithiothreitol by Cheng-Prusoff equation analysis; format: protein-complex assay
[24] = target: Cyclin-dependent kinase 2 (Homo sapiens) (UniProt P24941); experiment: Inhibition of CDK2 in human HCT-116 cells assessed as reduction in phosphorylation at Thr821 residue incubated for 24 hrs by Western blot analysis; format: cell-based; conditions: dose 0.5-1 µM
CDK9/cyclin T1 = CDK9/cyclin T1 (Homo sapiens, UniProt P50750); experiment: Inhibition of CDK9/cyclin T1 (unknown origin) assessed as inhibition constant incubated for 30 to 60 mins presence of dithiothreitol by Cheng-Prusoff equation analysis; format: protein-complex assay
CDK9/cyclin T1, sequence (O60563 whole entry): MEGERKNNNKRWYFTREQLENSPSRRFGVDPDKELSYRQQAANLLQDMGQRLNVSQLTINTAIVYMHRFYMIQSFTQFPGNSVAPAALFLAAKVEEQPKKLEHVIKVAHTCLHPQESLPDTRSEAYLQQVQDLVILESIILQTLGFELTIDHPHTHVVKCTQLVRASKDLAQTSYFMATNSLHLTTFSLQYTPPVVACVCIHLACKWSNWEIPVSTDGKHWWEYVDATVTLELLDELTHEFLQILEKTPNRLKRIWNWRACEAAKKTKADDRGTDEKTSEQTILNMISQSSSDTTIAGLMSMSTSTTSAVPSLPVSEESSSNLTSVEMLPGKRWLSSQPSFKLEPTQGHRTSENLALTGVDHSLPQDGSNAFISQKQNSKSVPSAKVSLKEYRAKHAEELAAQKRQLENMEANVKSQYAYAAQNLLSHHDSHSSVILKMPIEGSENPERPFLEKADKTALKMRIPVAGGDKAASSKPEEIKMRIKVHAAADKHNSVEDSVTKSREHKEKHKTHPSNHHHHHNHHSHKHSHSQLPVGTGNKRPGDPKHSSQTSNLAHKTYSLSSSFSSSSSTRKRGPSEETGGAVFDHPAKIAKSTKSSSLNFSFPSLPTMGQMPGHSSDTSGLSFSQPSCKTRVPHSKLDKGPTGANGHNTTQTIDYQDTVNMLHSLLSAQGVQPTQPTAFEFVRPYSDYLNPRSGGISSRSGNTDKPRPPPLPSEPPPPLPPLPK
CDK9/cyclin T1, sequence (P50750 whole entry): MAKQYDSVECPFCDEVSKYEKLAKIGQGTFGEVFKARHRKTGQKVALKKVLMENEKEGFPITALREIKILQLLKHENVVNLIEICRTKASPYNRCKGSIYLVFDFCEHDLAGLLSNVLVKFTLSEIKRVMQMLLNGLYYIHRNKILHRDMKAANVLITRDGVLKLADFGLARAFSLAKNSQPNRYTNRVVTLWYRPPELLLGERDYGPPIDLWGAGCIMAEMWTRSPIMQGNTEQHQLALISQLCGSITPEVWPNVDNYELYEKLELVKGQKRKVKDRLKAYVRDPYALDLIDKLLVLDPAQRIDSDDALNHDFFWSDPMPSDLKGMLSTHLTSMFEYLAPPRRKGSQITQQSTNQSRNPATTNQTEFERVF

NCI-H460 = experiment: Antiproliferative activity against human NCI-H460 cells assessed as inhibition of cell growth incubated for 72 hrs by MTT assay; format: functional
HCT-116 [25] = experiment: Induction of cell cycle arrest in human HCT-116 cells assessed as accumulation of cells at S phase at 1 uM incubated for 24 hrs by propidium iodide staining based flow cytometry (reference value: 18.01%); format: functional
U-937 = experiment: Antiproliferative activity against human U-937 cells assessed as inhibition of cell growth incubated for 72 hrs by MTT assay; format: functional
HCT-116 [26] = experiment: Induction of apoptosis in human HCT-116 cells assessed as viable cells at 0.5 uM incubated for 72 hrs by AnnexinV-FITC/propidium iodide staining based flow cytometry (reference value: 93.43%); format: functional; conditions: read-out: Activity
ES-2 = experiment: Antiproliferative activity against human ES2 cells assessed as inhibition of cell growth incubated for 72 hrs by MTT assay; format: functional
OVCAR-5 = experiment: Antiproliferative activity against human OVCAR-5 cells assessed as inhibition of cell growth incubated for 72 hrs by MTT assay; format: functional
[27] = Antiproliferative activity against human COV318 cells assessed as inhibition of cell growth incubated for 72 hrs by MTT assay; format: functional

SMILES: Cn1cc(-c2nc(Nc3ccc(S(N)(=O)=O)cc3)ncc2Cl)cn1
- Activity (HCT-116 [1]): 9.6%
- GI50 (MV4-11): 0.088 µM
- GI50 (NCI-H82): 0.183 µM
- GI50 (KM12): 0.558 µM
- GI50 [2]: 0.768 µM
- GI50 (U-251): 0.695 µM
- GI50 (HT-29): 0.291 µM
- inhibition [3]: Dose-Dependent Effect
- GI50 (MDA-MB-231): 0.472 µM
- GI50 (A2780): 0.074 µM
- Activity (HCT-116 [4]): Active
- GI50 (OAW-28): 0.78 µM
- GI50 (COLO 205): 0.194 µM
- Activity (HCT-116 [5]): 12.2%
- Ki [6]: 0.033 µM
- Activity (HCT-116 [7]): 5.01%
- Activity (HCT-116 [8]): 27.94%
- Activity (HCT-116 [9]): Active
- Activity (HCT-116 [10]): 4.24%
- GI50 (HCT-116 [11]): 0.186 µM
- Activity (HCT-116 [12]): 7.94%
- Activity (HCT-116 [13]): 1.83%
- viability at 1 µM (HCT-116 [14]): 78.4%
- Activity (HCT-116 [15]): 86.28%
- Activity (HCT-116 [16]): 2.11%
- Ki [17]: 0.005 µM
- GI50 (OV-90): 0.444 µM
- Activity (HCT-116 [18]): 4.78%
- Activity (HCT-116 [19]): inactive
- Activity (HCT-116 [20]): 0.51%
- Activity (HCT-116 [21]): 1.19%
- Activity (HCT-116 [22]): 52.06%
- Ki [23]: 0.001 µM
- inhibition [24]: Dose-Dependent Effect
- Ki (CDK9/cyclin T1): 0.017 µM
- GI50 (NCI-H460): 0.527 µM
- Activity (HCT-116 [25]): 18.5%
- GI50 (U-937): 0.145 µM
- viability at 0.5 µM (HCT-116 [26]): 77%
- GI50 (ES-2): 0.285 µM
- GI50 (OVCAR-5): 0.108 µM
- GI50 [27]: 0.545 µM
